Test results taken from patent US20170341980A1, “NOBLE GAS NEUROPROTECTION AND NEUROREGENERATION FROM TREATMENT RELATED NEUROTOXICITY” (NOBLIS THERAPEUTICS, INC., priority 2016, published 2017).

Legend:
tumor growth = assay: Clinical trial: tumor growth in brain metastasis patients receiving xenon versus air controls; type: in vivo, human; conditions: patients receiving xenon as compared to air controls
Description: (§1) A clinical trial is conducted in 20 patients with brain metastasis who receive 2 Gy to 100 Gy fractionated over 2-8 weeks. 10 patients are treated with 10-20 liters of 30% xenon every other day during radiation exposure. An additional 10 patients are treated with similar radiation regimen and administered 10-20 liters of air every other day during radiation exposure. […] Furthermore, verbal memory, as measured by the Hopkins Verbal Learning Test-Revised (HVLT-R), Cognitive flexibility as measured with the Controlled Oral Word Association (COWA), Word Fluency has measured with the Controlled Oral Word Association (COWA), Working memory has measured with the Wechsler Adult Intelligence Scale—Digit Span, Processing speed has measured with the Wechsler Adult Intelligence Scale—Digit Symbol, Motor dexterity has measured with the Grooved Pegboard (GP), Functional assessment, as measured by the Functional Assessment of Cancer Therapy-Brain (FACT-Br), all improved in the xenon treated group.

[1] = system: patients with brain metastasis; assay: Clinical trial: cognitive function in brain metastasis patients under fractionated radiation, xenon versus air; type: in vivo, human; conditions: vs air
Description: as §1

[2] = 10-20 liters of 30% xenon every other day during radiation exposure

acceleration of tumor growth (tumor growth): No acceleration of tumor growth
Compound: [Xe] [xenon]
cognitive function as measured by HVLT-R Total Recall score (verbal learning and memory test) ([1]; 10-20 liters of 30% xenon every other day during radiation exposure (2 Gy to 100 Gy fractionated over 2-8 weeks), at 3, 8, 12, and 24 weeks): preservation in cognitive function
Cognitive flexibility as measured with the Controlled Oral Word Association (COWA) [1, 2]: improved
Functional assessment, as measured by the Functional Assessment of Cancer Therapy-Brain (FACT-Br) [1, 2]: improved
Motor dexterity measured with the Grooved Pegboard (GP) [1, 2]: improved
Processing speed measured with the Wechsler Adult Intelligence Scale—Digit Symbol [1, 2]: improved
Word Fluency measured with the Controlled Oral Word Association (COWA) [1, 2]: improved
Working memory measured with the Wechsler Adult Intelligence Scale—Digit Span [1, 2]: improved
verbal memory, as measured by the Hopkins Verbal Learning Test-Revised (HVLT-R) [1, 2]: improved
